Laboratory results from patent US11992478B2, “Methods of using androgen receptor inhibitors as cancer therapeutics” (THE TRUSTEES OF THE UNIVERSITY OF PENNSYLVANIA, priority 2020, dated 2024).

Assays:
[1] = tested on: human melanoma cells (WM46); assay: Cell proliferation of human melanoma cells (WM46); assay type: cell-based; settings: for proliferation following addition of cations: WM46, over 6-days (FIG. 4D)
[2] = tested on: mouse melanoma cells (YUMM1.7); assay: Cell proliferation of mouse melanoma cells (YUMM1.7); assay type: cell-based
p-ERK (MAPK activation) = assay: ERK phosphorylation / MAPK activation (Western blot); assay type: cell-based, human
ZIP9 = settings: competitive binding assays; cited from earlier work
human WM46 melanoma = assay: WM46 melanoma tumor growth in SCID mice; assay type: in vivo; settings: for effect on tumors with engineered ZIP9 loss: either male or female mice
Text: The tumor-promoting effects of testosterone on early prostate cancer are known, and inhibition of testosterone signaling is a first-line treatment. […] Here it is shown that targeting nonclassical testosterone signaling through ZIP9 is therapeutically useful for cancer (FIG. 13).

melanoma cells = assay: Testosterone-induced hyperproliferation in melanoma cells (FIG. 10A); assay type: cell-based; settings: 2 μM Bicalutamide (FIG. 10A)
[3] = tested on: cell lines derived from diverse human and murine tumor types; assay: Testosterone-induced hyperproliferation in a panel of tumor cell lines (FIG. 11); assay type: cell-based
[4] = tested on: primary human melanocytes; assay: Cell proliferation of primary human melanocytes; assay type: cell-based; settings: androgen treatment (FIG. 3A)
[5] = tested on: human WM46 melanoma cells; assay: Cytosolic zinc influx with Fluo-Zin3 reporter; assay type: cell-based
YAP = YAP nuclear translocation (Western blot of fractions); assay type: cell-based, human; settings: WM46, testosterone exposure (FIG. 12B)
Text: (§1) (For clarity, this figure highlights only a subset of proteins from the entire data set of 450 proteins at 4 time points). […] FIG. 12B is a Western blot showing that testosterone promotes YAP nuclear translocation in WM46 cells. […] is used as control for the cytosolic fraction; PARP is used as a control for the nuclear fraction.
When activated, YAP and the related transcription factor TAZ are dephosphorylated and move from the cytosol to the nucleus. […] YAP is a substrate for 14-3-3ε, which sequesters YAP in the cytosol. As 14-3-3ε, was one of the proteins most depleted by testosterone, it is believed, without being bound by theory, that 14-3-3ε loss promotes YAP translocation to the nucleus where it then induces expression of tumor-promoting genes. It is likely that the MAK/ERK changes also contribute to testosterone induced YAP activation, as MEK and ERK1/2 are also major positive YAP regulators.

[6] = tested on: WM46 human melanoma cells; assay: Reverse Phase Protein Array of testosterone-treated melanoma cells; assay type: cell-based; settings: RPPA, testosterone 0, 30, 60 minutes and 8 hours
Text: as §1
Testosterone induces a rapid, ZIP9 dependent, increase in free cytosolic zinc that is required for the hyperproliferation. Zinc is required for myriad cellular enzymes and associated biologic process making it difficult to hypothesize a priori, what signaling mechanism(s) downstream of ZIP9 mediate the testosterone induced hyperproliferation. A 450 element Reverse Phase Protein Array analysis of human melanoma cells treated with testosterone for 0, 30 minutes, 60 minutes and 8 hours (FIG. 12A) was performed.

human PDAC = assay: Cell proliferation of human PDAC cells; assay type: cell-based; settings: human PDAC (FIG. 9C)
murine PDAC = assay: Cell proliferation of murine PDAC cells; assay type: cell-based, mouse
[7] = male SCID mice, 20 mg/kg/day systemic daily (FIG. 13C)

In the case of c1ccc(CN(CCN(Cc2ccccn2)Cc2ccccn2)Cc2ccccn2)nc1 [TPEN, N,N,N′,N′-tetrakis (2-pyridinylmethyl)-1,2-ethanediamine], the “effect on proliferation on its own” value ([1]; WM46, without testosterone (FIG. 4C)) is reported as “no significant effect”, the “effect on testosterone induced proliferation” value ([1]; WM46, zinc chelator plus testosterone, 6 days (FIG. 4C)) is reported as “completely blocked” and the “effect on testosterone stimulated proliferation” value ([2]; YUMM, zinc chelator plus testosterone (FIG. 7B)) is reported as “blocked”. For the same compound, the “effect on testosterone p-ERK induction” value (p-ERK (MAPK activation); with testosterone (FIG. 10B)) was “completely blocked”.

In the case of C[C@]12CCC(=O)C=C1CC[C@@H]1[C@@H]2CC[C@]2(C)C(=O)CC[C@@H]12 [androstenedione], the “ZIP9 binding specificity / affinity” value (ZIP9) is listed as “relatively low affinity”.

In the case of CNC(=O)c1ccc(N2C(=S)N(c3cnc(C#N)c(C(F)(F)F)c3)C(=O)C23CCC3)cc1F [apalutamide], the “effect on testosterone driven increased proliferation” value ([1]; WM46 (FIG. 10E)) is reported as “inhibit testosterone driven increased proliferation”, the “effect on testosterone dependent-increased proliferation” value ([1]; WM46, treated with 204 Apalutamide (so in the source)) is reported as “reverted” and the “effect on tumors with engineered ZIP9 loss” value (human WM46 melanoma) is reported as “no significant effect”. The melanoma growth (human WM46 melanoma; female mice, systemic delivery) was “no effect”, the survival (human WM46 melanoma; [7]) was “extend survival” and the tumor growth (human WM46 melanoma; [7]) was “inhibits tumor growth”.

In the case of CC(O)(CS(=O)(=O)c1ccc(F)cc1)C(=O)Nc1ccc(C#N)c(C(F)(F)F)c1 (stereo not shown) [bicalutamide], the “effect on cell proliferation in the absence of testosterone” value (melanoma cells) is reported as “no effect”, the “cell lines in which testosterone-induced hyperproliferation is blocked” value ([3]; FIG. 11) is reported as 10/12 and the “effect on tumors with engineered ZIP9 loss” value (human WM46 melanoma) is reported as “no significant effect”. The tumor growth (human WM46 melanoma; female mice, 30 mg/kg/day via oral gavage (FIG. 13A)) was “no effect”.

In the case of C[C@]12CCC(=O)C[C@@H]1CC[C@@H]1[C@@H]2CC[C@]2(C)[C@@H](O)CC[C@@H]12 [dihydrotestosterone], the “ZIP9 binding specificity / affinity” value (ZIP9) is listed as “relatively low affinity”.

With [Fe] [iron] the “proliferation following addition of cations” value [1] was “Only zinc promoted proliferation”.

For [Mn+2] [manganese], the “proliferation following addition of cations” value [1] was “Only zinc promoted proliferation”.

In the case of C[C@]12CC[C@H]3[C@@H](CCC4=CC(=O)CC[C@@]43C)[C@@H]1CC[C@@H]2O [testosterone], the cellular proliferation [1] is reported as “markedly increased cellular proliferation”, the “concentration of maximum proliferative response” value [1] is reported as 75 nM and the “proliferation of isogenic clones lacking ZIP9” value [1] is reported as “no effect”. The cellular proliferation ([2]; mouse melanoma cells, androgen treatment (FIG. 3A)) was “markedly increased cellular proliferation”, the “proliferation of isogenic clones lacking ZIP9” value ([2]; ΔZIP9 YUMM (FIG. 7B)) was “no effect” and the cellular proliferation [4] was “markedly increased cellular proliferation”. The “duration of sustained elevation in free cytosolic zinc” value ([5]; WM46, in the presence of the androgen (FIG. 4B)) was “at least 2 days”, the zinc influx ([5]; WM46, over 5 minutes (FIG. 4A)) was “rapid zinc influx” and the “effect on zinc in cells lacking ZIP9” value ([5]; ΔZIP9 WM46 (FIG. 7C)) was “no significant effect”. The ERK phosphorylation (p-ERK (MAPK activation); testosterone treatment (FIG. 3B)) was “increases ERK phosphorylation”, the “time to YAP movement from cytoplasm to nucleus” value (YAP) was 30 to 60 min and the 14-3-3c protein expression [6] was “downregulated”. For the same compound, the “CDKN2A (p16) protein expression” value [6] was “downregulated”, the YAP1 protein expression [6] was “Upregulated” and the “phosphorylated ERK (T202; Y204) level” value [6] was “Upregulated”. For the same compound, the proliferation (human PDAC) was “promotes proliferation”, the “response of ΔZIP9 cells in vitro” value (murine PDAC; mPDAC ΔZIP9 (FIG. 9E)) was “do not respond” and the proliferation (murine PDAC; murine PDAC (FIG. 9C)) was “promotes proliferation”. For the same compound, the “proliferative response to testosterone” value ([3]; MCF7 cells) was “did not respond”, the “proliferative response to testosterone” value ([3]; U87 cells) was “did not respond” and the “ZIP9 binding specificity / affinity” value (ZIP9) was “highly specific”.

In the case of [Zn+2] [zinc], the “proliferation following addition of cations” value [1] is reported as “promoted proliferation”.
